Positions of bridges follow the written chain, without caps; N, C: chain ends. Non-standard residues stand in square brackets, D forms with d. Residues, ends and D or L forms follow the SMILES beside them.
Key:
rat α9α10 nAChR = rat α9α10 nAChR (Rattus norvegicus, UniProt P43144+Q9JLB5); assay: cell-based; details: for inhibition of ACh-evoked current amplitude: 0.1 µM; for inhibition at 0.1 µM: read-out: inhibition of ACh-evoked current amplitude
human α9α10 nAChR = human α9α10 nAChR (Homo sapiens, UniProt Q9GZZ6+Q9UGM1); assay: cell-based; details: for inhibition at 10 µM: read-out: inhibition of ACh-evoked currents
rat α3β2 nAChR = rat α3β2 nAChR (Rattus norvegicus, UniProt P04757+P12390); assay type: cell-based
rat α4β4 nAChR = rat α4β4 nAChR (Rattus norvegicus, UniProt P09483+P12392); assay type: cell-based
rat α4β2 nAChR = rat α4β2 nAChR (Rattus norvegicus, UniProt P09483+P12390); assay type: cell-based
rat α2β4 nAChR = rat α2β4 nAChR (Rattus norvegicus, UniProt P12389+P12392); assay type: cell-based
rat α6/α3β4 nAChR = rat α6/α3β4 nAChR (Rattus norvegicus, UniProt P04757+P12392+P43143); assay type: cell-based
rat α6/α3β4 nAChR, sequence (P04757 whole entry, looked up): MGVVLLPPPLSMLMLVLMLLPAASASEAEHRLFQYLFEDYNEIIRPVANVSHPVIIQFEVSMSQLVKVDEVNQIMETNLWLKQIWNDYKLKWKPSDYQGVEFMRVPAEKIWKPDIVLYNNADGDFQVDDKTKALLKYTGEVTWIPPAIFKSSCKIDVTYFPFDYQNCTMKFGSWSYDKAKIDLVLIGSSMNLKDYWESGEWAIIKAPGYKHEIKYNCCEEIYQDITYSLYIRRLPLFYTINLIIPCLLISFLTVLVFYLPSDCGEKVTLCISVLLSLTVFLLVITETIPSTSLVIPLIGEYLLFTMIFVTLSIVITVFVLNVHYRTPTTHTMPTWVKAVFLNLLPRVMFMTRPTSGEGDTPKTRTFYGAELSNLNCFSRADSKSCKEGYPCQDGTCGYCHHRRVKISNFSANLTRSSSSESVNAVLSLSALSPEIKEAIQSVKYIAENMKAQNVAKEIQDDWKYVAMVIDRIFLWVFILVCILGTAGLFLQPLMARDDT
rat α6/α3β4 nAChR, sequence (P12392 whole entry, looked up): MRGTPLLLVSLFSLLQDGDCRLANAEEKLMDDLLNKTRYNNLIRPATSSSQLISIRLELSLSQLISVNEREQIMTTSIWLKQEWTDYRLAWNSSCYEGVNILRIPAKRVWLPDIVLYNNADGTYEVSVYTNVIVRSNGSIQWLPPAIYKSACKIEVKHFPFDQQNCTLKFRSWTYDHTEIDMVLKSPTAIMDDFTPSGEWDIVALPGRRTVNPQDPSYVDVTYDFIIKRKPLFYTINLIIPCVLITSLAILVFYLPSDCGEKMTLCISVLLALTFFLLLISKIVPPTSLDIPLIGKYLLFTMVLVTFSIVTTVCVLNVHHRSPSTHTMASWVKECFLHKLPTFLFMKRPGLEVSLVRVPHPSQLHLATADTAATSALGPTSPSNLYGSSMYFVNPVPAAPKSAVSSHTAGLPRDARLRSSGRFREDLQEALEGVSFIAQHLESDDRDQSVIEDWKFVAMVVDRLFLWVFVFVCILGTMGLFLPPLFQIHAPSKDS
rat α6/α3β4 nAChR, sequence (P43143 whole entry, looked up): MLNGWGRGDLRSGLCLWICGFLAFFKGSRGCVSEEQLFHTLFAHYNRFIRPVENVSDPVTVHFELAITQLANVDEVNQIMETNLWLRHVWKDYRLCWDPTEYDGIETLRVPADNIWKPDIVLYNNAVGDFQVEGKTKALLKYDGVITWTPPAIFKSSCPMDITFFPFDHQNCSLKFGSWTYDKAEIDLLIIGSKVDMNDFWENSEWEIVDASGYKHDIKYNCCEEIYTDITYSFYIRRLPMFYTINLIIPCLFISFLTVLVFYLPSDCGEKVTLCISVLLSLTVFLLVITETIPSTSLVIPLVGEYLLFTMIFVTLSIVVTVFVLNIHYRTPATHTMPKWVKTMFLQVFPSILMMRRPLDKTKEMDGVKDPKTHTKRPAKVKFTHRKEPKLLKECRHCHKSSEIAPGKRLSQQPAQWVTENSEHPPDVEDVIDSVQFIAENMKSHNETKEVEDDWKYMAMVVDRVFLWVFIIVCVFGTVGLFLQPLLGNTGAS

rat α9α10 nAChR, sequence (P43144 26-479 limits assumed): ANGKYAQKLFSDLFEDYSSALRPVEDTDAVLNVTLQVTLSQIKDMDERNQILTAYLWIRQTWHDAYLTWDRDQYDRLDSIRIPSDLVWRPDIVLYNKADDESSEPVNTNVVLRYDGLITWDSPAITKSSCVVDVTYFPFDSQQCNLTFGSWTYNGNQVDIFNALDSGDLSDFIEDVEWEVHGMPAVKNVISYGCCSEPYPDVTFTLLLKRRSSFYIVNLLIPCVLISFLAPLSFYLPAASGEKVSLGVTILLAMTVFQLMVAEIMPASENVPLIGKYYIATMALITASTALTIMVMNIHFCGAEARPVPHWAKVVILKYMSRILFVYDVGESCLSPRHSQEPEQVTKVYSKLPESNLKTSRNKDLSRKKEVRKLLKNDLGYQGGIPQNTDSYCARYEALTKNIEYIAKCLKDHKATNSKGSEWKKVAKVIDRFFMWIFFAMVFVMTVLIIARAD
rat α9α10 nAChR, sequence (Q9JLB5 25-447 limits assumed): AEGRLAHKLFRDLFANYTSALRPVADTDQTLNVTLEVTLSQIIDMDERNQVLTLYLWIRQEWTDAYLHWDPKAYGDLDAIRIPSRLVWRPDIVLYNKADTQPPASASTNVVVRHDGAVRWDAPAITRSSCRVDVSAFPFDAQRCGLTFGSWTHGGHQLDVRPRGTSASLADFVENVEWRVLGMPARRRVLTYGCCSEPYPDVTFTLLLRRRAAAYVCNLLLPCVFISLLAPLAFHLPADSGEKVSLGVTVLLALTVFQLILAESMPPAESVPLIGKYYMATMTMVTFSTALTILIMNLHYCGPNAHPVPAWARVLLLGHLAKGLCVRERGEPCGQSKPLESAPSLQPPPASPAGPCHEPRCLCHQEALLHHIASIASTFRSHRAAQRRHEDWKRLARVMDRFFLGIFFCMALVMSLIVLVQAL
rat α2β4 nAChR, sequence (P12389 28-511 limits assumed): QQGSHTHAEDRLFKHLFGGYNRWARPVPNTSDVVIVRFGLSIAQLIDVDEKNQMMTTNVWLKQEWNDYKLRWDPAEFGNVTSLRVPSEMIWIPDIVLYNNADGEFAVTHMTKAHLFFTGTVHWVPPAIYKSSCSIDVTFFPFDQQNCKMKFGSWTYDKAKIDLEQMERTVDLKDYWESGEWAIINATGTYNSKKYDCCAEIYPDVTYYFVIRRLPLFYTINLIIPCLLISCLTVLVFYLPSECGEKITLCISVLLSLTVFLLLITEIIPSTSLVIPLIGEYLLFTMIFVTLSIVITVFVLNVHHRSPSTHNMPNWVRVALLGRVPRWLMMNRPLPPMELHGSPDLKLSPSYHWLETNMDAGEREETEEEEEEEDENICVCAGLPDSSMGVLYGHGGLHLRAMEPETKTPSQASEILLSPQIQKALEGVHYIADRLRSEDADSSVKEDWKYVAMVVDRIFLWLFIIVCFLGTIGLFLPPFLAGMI
rat α2β4 nAChR, sequence (P12392 21-495 limits assumed): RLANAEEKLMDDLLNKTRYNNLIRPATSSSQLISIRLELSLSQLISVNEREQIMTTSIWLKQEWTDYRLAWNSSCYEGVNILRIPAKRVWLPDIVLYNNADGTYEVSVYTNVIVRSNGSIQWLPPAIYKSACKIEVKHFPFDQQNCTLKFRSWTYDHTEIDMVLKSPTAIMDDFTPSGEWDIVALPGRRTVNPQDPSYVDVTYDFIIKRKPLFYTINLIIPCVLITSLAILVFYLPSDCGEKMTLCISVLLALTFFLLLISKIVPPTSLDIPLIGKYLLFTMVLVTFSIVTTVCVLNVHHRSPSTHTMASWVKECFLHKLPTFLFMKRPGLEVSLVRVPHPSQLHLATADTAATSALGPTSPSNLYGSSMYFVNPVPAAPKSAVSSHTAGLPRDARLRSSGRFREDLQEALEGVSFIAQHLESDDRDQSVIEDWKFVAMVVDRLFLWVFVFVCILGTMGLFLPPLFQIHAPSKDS
rat α3β2 nAChR, sequence (P04757 26-499 limits assumed): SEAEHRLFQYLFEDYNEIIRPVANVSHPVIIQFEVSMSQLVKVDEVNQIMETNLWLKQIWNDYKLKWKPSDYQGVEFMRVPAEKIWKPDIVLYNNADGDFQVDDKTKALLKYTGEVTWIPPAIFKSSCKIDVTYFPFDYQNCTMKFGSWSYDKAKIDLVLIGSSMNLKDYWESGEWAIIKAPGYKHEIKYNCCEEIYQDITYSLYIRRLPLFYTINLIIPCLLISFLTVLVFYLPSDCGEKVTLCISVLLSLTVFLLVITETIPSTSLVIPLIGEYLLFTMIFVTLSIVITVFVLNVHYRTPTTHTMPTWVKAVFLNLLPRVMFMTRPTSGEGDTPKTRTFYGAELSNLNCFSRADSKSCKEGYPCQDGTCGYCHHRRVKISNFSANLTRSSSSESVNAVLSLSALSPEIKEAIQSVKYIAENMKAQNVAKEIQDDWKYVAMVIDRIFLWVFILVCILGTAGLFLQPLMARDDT
rat α3β2 nAChR, sequence (P12390 25-500 limits assumed): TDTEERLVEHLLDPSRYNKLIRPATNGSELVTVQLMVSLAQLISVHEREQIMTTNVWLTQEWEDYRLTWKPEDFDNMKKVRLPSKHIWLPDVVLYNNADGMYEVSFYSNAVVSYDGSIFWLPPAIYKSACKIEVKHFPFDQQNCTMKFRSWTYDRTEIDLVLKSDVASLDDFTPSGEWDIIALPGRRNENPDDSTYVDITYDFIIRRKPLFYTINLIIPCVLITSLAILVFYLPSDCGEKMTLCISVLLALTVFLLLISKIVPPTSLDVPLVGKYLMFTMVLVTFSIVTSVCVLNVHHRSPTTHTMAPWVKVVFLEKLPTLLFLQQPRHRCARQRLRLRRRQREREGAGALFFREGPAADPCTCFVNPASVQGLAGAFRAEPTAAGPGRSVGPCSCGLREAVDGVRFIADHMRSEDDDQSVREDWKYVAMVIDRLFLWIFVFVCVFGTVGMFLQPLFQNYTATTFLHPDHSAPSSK
rat α4β2 nAChR, sequence (P09483 31-630 limits assumed): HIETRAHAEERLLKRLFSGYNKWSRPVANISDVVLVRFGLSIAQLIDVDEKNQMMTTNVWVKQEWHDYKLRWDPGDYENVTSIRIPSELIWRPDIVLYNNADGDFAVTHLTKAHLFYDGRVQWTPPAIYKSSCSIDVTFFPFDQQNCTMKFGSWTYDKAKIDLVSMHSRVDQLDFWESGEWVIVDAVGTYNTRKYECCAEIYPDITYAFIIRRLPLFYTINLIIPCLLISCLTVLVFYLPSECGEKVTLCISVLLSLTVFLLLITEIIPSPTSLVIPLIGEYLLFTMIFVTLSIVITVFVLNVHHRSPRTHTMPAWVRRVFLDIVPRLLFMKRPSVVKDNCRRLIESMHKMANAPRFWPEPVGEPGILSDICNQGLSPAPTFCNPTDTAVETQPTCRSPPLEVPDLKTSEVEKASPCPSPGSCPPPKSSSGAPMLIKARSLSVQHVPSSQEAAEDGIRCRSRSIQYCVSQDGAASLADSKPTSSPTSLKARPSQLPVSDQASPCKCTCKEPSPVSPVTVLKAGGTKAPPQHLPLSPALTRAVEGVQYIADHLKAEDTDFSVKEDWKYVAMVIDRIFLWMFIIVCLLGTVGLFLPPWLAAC
rat α4β2 nAChR, sequence (P12390 25-500 limits assumed): as the sequence (P12390 25-500 limits assumed) above

| SMILES | inhibition at 10 µM (human α9α10 nAChR) [%] | activity against rat α3β2 nAChR (rat α3β2 nAChR) | activity against rat α4β4 nAChR (rat α4β4 nAChR) | activity against rat α4β2 nAChR (rat α4β2 nAChR) | activity against rat α2β4 nAChR (rat α2β4 nAChR) | activity against rat α6/α3β4 nAChR (rat α6/α3β4 nAChR) | activity at a concentration of 10 μM (rat α9α10 nAChR) | inhibition at 0.1 µM (rat α9α10 nAChR) [%] | further results |
| --- | --- | --- | --- | --- | --- | --- | --- | --- | --- |
| N=C(N)NCCC[C@@H](NC(=O)[C@@H]1CSSC[C@@H]2NC(=O)[C@@H](NC(=O)CN)CSSC[C@H](NC(=O)[C@@H](CCCNC(=N)N)NC(=O)[C@@H]3CCCN3C(=O)[C@H](CC(=O)O)NC(=O)[C@H](CO)NC2=O)C(=O)N[C@H](CCCNC(=N)N)C(=O)N[C@@H](Cc2ccc(O)cc2)C(=O)N[C@H](CCCNC(=N)N)C(=O)N1)C(=O)O [Compound 14] | 70 to 90 | inactive | inactive | inactive | inactive | inactive |  |  | inhibition of ACh-evoked current amplitude (rat α9α10 nAChR): did not inhibit |
| N=C(N)NCCC[C@H](NC(=O)[C@@H]1CSSC[C@@H]2NC(=O)[C@@H](NC(=O)CN)CSSC[C@H](NC(=O)[C@@H](CCCNC(=N)N)NC(=O)[C@@H]3CCCN3C(=O)[C@H](CC(=O)O)NC(=O)[C@H](CO)NC2=O)C(=O)N[C@@H](CCCNC(=N)N)C(=O)N[C@@H](Cc2ccc(O)cc2)C(=O)N[C@@H](CCCNC(=N)N)C(=O)N1)C(=O)O [Compound 7] |  |  |  |  |  |  | not active |  |  |
| N=C(N)NCCC[C@H](NC(=O)[C@@H]1CSSC[C@H]2NC(=O)[C@@H](NC(=O)CN)CSSC[C@H](NC(=O)[C@H](CCCNC(=N)N)NC(=O)[C@@H]3CCCN3C(=O)[C@H](CC(=O)O)NC(=O)[C@H](CO)NC2=O)C(=O)N[C@@H](CCCNC(=N)N)C(=O)N[C@@H](Cc2ccc(O)cc2)C(=O)N[C@@H](CCCNC(=N)N)C(=O)N1)C(=O)O [Compound 3] |  |  |  |  |  |  |  | 78.7 ± 2 |  |
| N=C(N)NCCC[C@@H]1NC(=O)[C@@H]2CSSC[C@H](NC(=O)CN)C(=O)N[C@@H](CSSC[C@@H](C(=O)N[C@H](CCCNC(=N)N)C(=O)O)NC(=O)[C@H](CCCNC(=N)N)NC(=O)[C@H](Cc3ccc(O)cc3)NC1=O)C(=O)N[C@@H](CO)C(=O)N[C@@H](CC(=O)O)C(=O)N1CCC[C@H]1C(=O)N[C@@H](CCCNC(=N)N)C(=O)N2 [Compound 13] | 70 to 90 | inactive | inactive | inactive | inactive | inactive |  | 97.2 ± 0.05 |  |
| N=C(N)NCCC[C@H](NC(=O)[C@@H]1CSSC[C@@H]2NC(=O)[C@@H](NC(=O)CN)CSSC[C@H](NC(=O)[C@H](CCCNC(=N)N)NC(=O)[C@H]3CCCN3C(=O)[C@H](CC(=O)O)NC(=O)[C@H](CO)NC2=O)C(=O)N[C@@H](CCCNC(=N)N)C(=O)N[C@@H](Cc2ccc(O)cc2)C(=O)N[C@@H](CCCNC(=N)N)C(=O)N1)C(=O)O [Compound 6] |  |  |  |  |  |  | not active |  |  |
| N=C(N)NCCC[C@H](NC(=O)[C@@H]1CSSC[C@@H]2NC(=O)[C@@H](NC(=O)CN)CSSC[C@H](NC(=O)[C@H](CCCNC(=N)N)NC(=O)[C@@H]3CCCN3C(=O)[C@@H](CC(=O)O)NC(=O)[C@H](CO)NC2=O)C(=O)N[C@@H](CCCNC(=N)N)C(=O)N[C@@H](Cc2ccc(O)cc2)C(=O)N[C@@H](CCCNC(=N)N)C(=O)N1)C(=O)O [Compound 5] |  |  |  |  |  |  | not active |  |  |
| N=C(N)NCCC[C@H]1NC(=O)[C@H](Cc2ccc(O)cc2)NC(=O)[C@@H](CCCNC(=N)N)NC(=O)[C@@H]2CSSC[C@H](NC(=O)CN)C(=O)N[C@@H](CSSC[C@@H](C(N)=O)NC1=O)C(=O)N[C@@H](CO)C(=O)N[C@@H](CC(=O)O)C(=O)N1CCC[C@H]1C(=O)N[C@H](CCCNC(=N)N)C(=O)N2 [Compound 15] (H-GCCSDP[dR]C[dR]Y[dR]C-NH2; disulfide 2-8, 3-12) | 70 to 90 | inactive | inactive | inactive | inactive | inactive |  |  | IC50 (rat α9α10 nAChR): 288 nM; inhibition of ACh-evoked current amplitude (rat α9α10 nAChR): did not inhibit; IC50 (human α9α10 nAChR): 680 nM |
| C[C@@H](N)C(=O)N[C@H]1CSSC[C@@H]2NC(=O)[C@H](CCCNC(=N)N)NC(=O)[C@@H]3CCCN3C(=O)[C@H](CC(=O)O)NC(=O)[C@H](CO)NC(=O)[C@H](CSSC[C@@H](C(=O)N[C@@H](CCCNC(=N)N)C(=O)O)NC(=O)[C@H](CCCNC(=N)N)NC(=O)[C@H](Cc3ccc(O)cc3)NC(=O)[C@H](CCCNC(=N)N)NC2=O)NC1=O [Compound 1] (H-[dA]CCSDPRCRYRCR-OH; disulfide 2-8, 3-12) |  |  |  |  |  |  |  | 70.6 ± 2 | IC50 (rat α9α10 nAChR): 41.1 nM; IC50 (human α9α10 nAChR): > 10000 nM |
| N=C(N)NCCC[C@H](NC(=O)[C@@H]1CSSC[C@@H]2NC(=O)[C@@H](NC(=O)CN)CSSC[C@H](NC(=O)[C@H](CCCNC(=N)N)NC(=O)[C@@H]3CCCN3C(=O)[C@H](CC(=O)O)NC(=O)[C@@H](CO)NC2=O)C(=O)N[C@@H](CCCNC(=N)N)C(=O)N[C@@H](Cc2ccc(O)cc2)C(=O)N[C@@H](CCCNC(=N)N)C(=O)N1)C(=O)O [Compound 4] |  |  |  |  |  |  | not active |  |  |
| N=C(N)NCCC[C@H](NC(=O)[C@@H]1CSSC[C@@H]2NC(=O)[C@@H](NC(=O)CN)CSSC[C@H](NC(=O)[C@H](CCCNC(=N)N)NC(=O)[C@@H]3CCCN3C(=O)[C@H](CC(=O)O)NC(=O)[C@H](CO)NC2=O)C(=O)N[C@@H](CCCNC(=N)N)C(=O)N[C@@H](Cc2ccc(O)cc2)C(=O)N[C@H](CCCNC(=N)N)C(=O)N1)C(=O)O [Compound 11] |  |  |  |  |  |  | not active |  |  |

Reference: PMC6472032 (Marine Drugs, 2019)
